The text below walks through data of US12357702B2, “Peptidic diagnostic compositions” (S. M. Discovery Group Inc., priority 2013, dated 2025).

Where a SMILES comes first, the peptide text is derived from it. Where no end group is shown, it is not given here. The star is where a group is joined. RhodamineB = CCN(CC)c1ccc2c(-c3ccccc3C(=O)*)c3ccc(=[N+](CC)CC)cc-3oc2c1; 5FAM = O=C1OC2(c3ccc(O)cc3Oc3cc(O)ccc32)c2ccc(C(=O)*)cc21; FAM = fluorescein amidite label

In data set [1] the test system is hCMEC/D3 cells. Put plainly: double peptide-mediated GFP plasmid transfection. The class given is cell-based, human. On the procedure:
To evaluate double peptide (DP)-mediated gene transfection, different concentrations of DP and constant amounts of pcDNA3.1 NT-GFP expression plasmid (0.3 μg) (the peptide/DNA change ration of 1:10, 1:20 and 1:40 were investigated in this study) were mixed into 50 μL serum free media, and complexes were formed for 1 h at room temperature, after which another 150 μL serum free media was added (total volume of peptide/DNA complex was 200 μL). The cultured hCMEC/D3 cells (2×10^4 cells) were overlaid with 200 μL peptide/DNA complex, followed by incubation for 4 h at 37° C. in 5% CO2 atmosphere. The cultures were then a washed once with serum-free media and transferred to complete media containing 5% serum for growth. After 48 h, GFP gene expressions were monitored by fluorescence microscopy. Lipofectamine® 2000-mediated transfections were performed as described by the manufacturer's protocol (Life Technologies, CA, USA).

Data set [2] has as its system hCMEC/D3 cells. The experiment in a line: delivery of cargo peptides by Rh-CGY or CGY peptidic complexes (microscopy, FACS). In kind it is cell-based, human. To be noted: 10 μM Rh-CGY or CGY peptide, 24 h. How it is done: Peptidic complexes were formed by drop addition of cargoes (FAM-(C)-NAP, FAM-GYR, FAM-NAP, FAM) to 80 μM rhodamine-conjugated CGY peptide (Rh-CGY) or 80 μM CGY peptide (Table X) in MilliQ (MQ) water with equitable liquid volume and incubated for 60 min. The mixture was diluted with MQ water to a final Rh-CGY or CGY peptide concentration of 10 μM. The peptidic complexes were characterized by NTA for size and electron microscopy (EM) for mophology. Western blot was also employed to detect disulfide bond, which form between the cargo and Rh-CGY peptide or CGY peptide. Briefly, the peptide or complex samples were loaded on 10% Bis-Tris mini gels (Invitrogen, CA, USA) and subjected to electrophoresis. The separated samples were electrophoretically transferred to PVDF membranes by use of an iBlot™ Gel Transfer Device (Life Technologies, USA). Membranes were blocked for 1 h at room temperature in 3% BSA/TBST (137 mM Sodium Chloride, 20 mM Tris, 0.1% Tween-20, pH 7.6), and incubated over night at 4° C. with HRP-Goat anti-Fluorescein antibody (diluted 1:1000 in 2% BSA/TBST). For detection, membranes were incubated with Novex® ECL Chemiluminescent Substrate Reagent Kit (Invitrogen, CA, USA).
Delivery peptide to hCMEC/D3 cells. […] Live cell images were obtained by widefield microscopy, and the intercellular fluorescence intensity was quantified by FACS.

Data set [3] is described as follows: Nanoparticle Tracking Analysis (NTA) of peptide self-assembly. The class given is physicochemical. Particulars: in MQ water. How it is done: To investigate whether the polypeptide conjugate can self-assemble, Nanoparticle Tracking Analysis (NTA) technology was employed to detect the peptide aggregation. Briefly, 1 mL peptide solutions with different concentrations (0.5, 1, 2.5 and 5 μM) were prepared by diluting the peptide stock solutions (500 μM) with MQ water and incubate for 30 min at room temperature. NTA measurements were performed with a NanoSight LM20 (NanoSight Ltd., Amesbury, United Kingdom) equipped with a sample chamber with a 405 nm blue laser and a Viton fluoroelastomer O-ring. The peptide samples were injected in the sample chamber with sterile syringes (BD Discardit II, New Jersey, USA) until the liquid reached the tip of the nozzle. All measurements were performed at room temperature. For the pH effect of FAM-CGY peptide assembly, FAM-CGY stock solution (500 μM) was diluted into 5 μM with 10 mM HEPES buffer where pH values were adjusted with 1 M HCl or 1 M NaOH, respectively.
Different molar rates of siRNA were added to the FAM-CGY peptide solution (50 μM/L) dropwise in saline solution and incubated for 30 min. […] The atomic force microscopy (AFM) (FIG. 22A), nanoparticle tracking analysis (NTA) (FIG. 22B), fluorescence microscopy (not shown), dynamic light scattering (DLS) technology (not shown) and transmission electron microscopy (TEM) (FIG. 23) were employed to characterize the siRNA/FAM-CGY complex. […]

In data set [4] the test system is hCMEC/D3 cells. The experiment in a line: LDH cytotoxicity assay. In kind it is cell-based, human. Particulars: 24 h; for LDH leakage in the medium compared to the control: 1 to 20 μM peptide. On the procedure:
Cell viability assessment following treatment of cells with the fluorescent peptide FIG. 26A or siRNA/FAM-CGY complex FIG. 26B for 24 h, determined by LDH assay (n=6). Background: untreated cells. To examine the cytotoxicity of the peptide and the siRNA/FAM-CGY complex, the hCMEC/D3 cells were incubated with concentrations 1, 2, 5, 10, 20 μM of the peptide and different relations of siRNA/FAM-CGY complexes (8:5, 16:5 or 24:5) for 24 h, the viability of cells without treatment was used as a control. The cytotoxicity was measured by a LDH assay. The LDH assay measures the membrane integrity as a function of the amount of cytoplasmic LDH leaked into the medium.
The cytoxicity of FAM-CGY peptide and siRNA/FAM-CGY complex was evaluated by […] (LDH) assay (FIG. 26). The hCMEC/D3 cells were incubated with different concentrations of the peptide (from 1 to 20 μM) and different formulations of siRNA/FAM-CGY complexes for 24 h. The viability of cells without treatment was used as a control. The LDH assay has means of measuring the membrane integrity as a function of the amount of cytoplasmic LDH leaked into the medium. […] Thus, there were no significant differences observed between the groups treated with FAM-CGY, FAM-d-CGY and CGY-FAM.

Data set [5] relates to hCMEC/D3 cells. Put plainly: uptake of FAM-CGY and FAM-GYR-GYR peptides by FACS. The class given is cell-based, human. To be noted: 1-10 μM, 24 h, all tested concentrations. How it is done: The different cellular uptake of FAM-CGY and FAM-GYR-GYR peptides in hCMEC/D3 cells was investigated by flow cytometry (FACS). hCMEC/D3 cells (2×10^4/cm^2) were seeded on 24-well plate (Corning, NY) and grown 2 days at 37° C. and 5% CO2 in order to reach 60%-70% confluency. The cells were washed 3 times with pre-heated PBS. The peptide uptake experiments were initiated by adding 200 μL of a range of FAM-CGY and FAM-GYR-GYR in different concentrations (1-10 μM/L, diluted in cell medium containing serum). The double peptide contains the sequence […](SEQ ID NO: 2) and optionally has an N-terminal cysteine residue.
After 24 h incubation at 37° C. with 5% CO2, each chamber was washed with pre-heated PBS 3 times, and harvested by trypsinization. A total of 10,000 cells were analyzed by flow cytometry (FACS Array™ Cell Analysis, BD, USA) (FIG. 35).

In data set [6] the test system is complement activation products SC5d-9, C5a, and C3a. The experiment in a line: complement activation in human serum. Particulars: healthy human serum, low and high concentration. How it is done:
FIGS. 12A, 12B, and 12C are graphs illustrating a complement activation experiment. The complement activation products FIG. 12A. […], FIG. 12B. C5a, and FIG. 12C. C3a were quantified in healthy human serum after incubation of CGY, FAM-CGY and FAM-d-CGY peptide at low and high concentration. Background noise and positive control (Zymosan) are presented for each product. Complement activation and fixation is a fundamental process contributing to macrophage clearance of intravenously injected nanopaticles. Accordingly, complement activation studies in human serum were performed with low and high concentrations of FAM-CGY peptide and other peptides (CGY, FAM-d-CGY) for comparison. […] The responses were relatively low, and close to the background activation. Only a slight level of complement activation was observed compared to the positive control (Zymosan). There were no systematic differences between the activation below and above CMC. Conclusion: The FAM-CGY nanoparticles are unlikely to induce complement-mediated immune reactions following intravenous injection.

Data set [7] has as its system brain capillary endothelial cells. To be noted: cited from earlier work.

As to GYRPVHNIRGHWAPGGGYRPVHNIRGHWAPG [DP], the “translocation of plasmids into cells” value in the data set on hCMEC/D3 cells [1] (charge ratios of peptide/DNA more than 20) was “able to mediate translocation of plasmids into cells”. In addition, the “transfection efficiency (GFP fluorescence intensity)” value in the data set with hCMEC/D3 cells [1] (peptide/DNA charge ratio 40:1, 48 h) is “comparable with commercial transfection reagent Lipofectamine® 2000”.

For the molecule “Rh-CGY: Rhdomine B conjugated with CGY peptide in the N-terminal (RhodamineB-CGYRPVHNIRGHWAPG)”, the “uptake / delivery of cargo into hCMEC/D3 cells” value with hCMEC/D3 cells [2] is on record as “can efficiently enter the hCMEC/D3 cells”. In addition, in data set [3], the “mean (average) size of self-assembly (NTA)” value is given as 131±60 nm and the “mode (modal size) of self-assembly (NTA)” value came out at 94 nm.

Regarding “Cys-Gly-Tyr-Arg-Pro-Val-His-Asn-Ile-Arg-Gly-His-Trp-Ala-Pro-Gly-Lys-5-FAM (CGYRPVHNIRGHWAPGK(5FAM); not fully specified (C-terminus); printed as Cys-Gly-Tyr-Arg-Pro-Val-His-Asn-Ile-Arg-Gly-His-Trp-Ala-Pro-Gly-Lys-5-FAM) [CGY-FAM]”, the “LDH leakage in the medium compared to the control” value with hCMEC/D3 cells [4] is on record as “did not significantly increase”.

In the case of “FAM-GYR-GYR: FAM-labelled double peptide containing SEQ ID NO: 2, two GYR sequences joined by a glycine residue ({FAM}-GYRPVHNIRGHWAPGGGYRPVHNIRGHWAPG)”, the “uptake compared with FAM-CGY peptide (FACS)” value in the data set with hCMEC/D3 cells [5] was “considerably higher uptake”.

Turning to `CC[C@H](C)[C@H](NC(=O)[C@H](CC(N)=O)NC(=O)[C@H](Cc1c[nH]cn1)NC(=O)[C@@H](NC(=O)[C@@H]1CCCN1C(=O)[C@H](CCCNC(=N)N)NC(=O)[C@H](Cc1ccc(O)cc1)NC(=O)CNC(=O)[C@H](CS)NC(=O)c1ccc2c(c1)C(=O)OC21c2ccc(O)cc2Oc2cc(O)ccc21)C(C)C)C(=O)N[C@@H](CCCNC(=N)N)C(=O)NCC(=O)N[C@@H](Cc1c[nH]cn1)C(=O)N[C@@H](Cc1c[nH]c2ccccc12)C(=O)N[C@@H](C)C(=O)N1CCC[C@H]1C(=O)NCC(=O)O` [FAM-CGY] (5FAM-CGYRPVHNIRGHWAPG-OH), in the data set on hCMEC/D3 cells [4], the “LDH leakage in the medium compared to the control” value is given as “did not significantly increase” and the “cytotoxicity (LDH assay)” value is “no significant cytotoxicity”. Further, in data set [6], the “effect on the level of complement activation products SC5d-9, C5a, and C3a” value is reported as “no significant effect”.

In the case of “GYRPVHNIRGHWAPG [SEQ ID NO: 1, targeting peptide of WO2011/005098]”, the “liposome uptake when peptide is coupled to liposomes” value in data set [7] was “did not significantly increase liposome uptake”.

For the molecule “5-FAM-dCys-dGly-dTyr-dArg-dPro-dVal-dHis-dAsn-dIle-dArg-dGly-dHis-dTrp-dAla-dPro-dGly [FAM-d-CGY]”, the “LDH leakage in the medium compared to the control” value with hCMEC/D3 cells [4] was “did not significantly increase”.
